# Test results reported in patent publication US20090239845A1, “PYRAZOLE COMPOUNDS AS PROSTAGLANDIN RECEPTORS LIGANDS” (priority 2005, published 2009).
# Where a name gives a salt, the structure may show the parent alone.
# Molecular target: T1, human EP1 receptor (Homo sapiens, UniProt P34995)
# T1 construct: expressed in transfected cells; host or cells: CHO-K1
# T1 sequence (P34995 1-402): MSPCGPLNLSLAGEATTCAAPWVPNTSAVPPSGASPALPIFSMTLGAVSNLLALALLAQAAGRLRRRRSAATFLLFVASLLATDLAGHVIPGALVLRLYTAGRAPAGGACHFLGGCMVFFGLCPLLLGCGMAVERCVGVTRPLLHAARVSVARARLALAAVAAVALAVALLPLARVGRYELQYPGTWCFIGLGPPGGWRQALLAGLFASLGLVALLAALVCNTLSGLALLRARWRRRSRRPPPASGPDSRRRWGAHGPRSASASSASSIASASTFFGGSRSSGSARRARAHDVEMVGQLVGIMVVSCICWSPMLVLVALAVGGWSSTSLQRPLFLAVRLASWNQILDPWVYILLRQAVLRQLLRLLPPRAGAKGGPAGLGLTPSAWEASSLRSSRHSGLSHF
# Assay: human EP1 calcium mobilisation assay
# Assay type: cell-based
# Details: negative logarithm10 of the antagonist dissociation constant; CHO-K1 cells, PGE2; free bases or sodium salts; averages of a number of experiments; read-out: functional pKi value (converted)
# Protocol: Briefly, the antagonist properties of compounds are assessed by their ability to inhibit the mobilisation of intracellular calcium ([Ca^2+]i) in response to activation of EP1 or EP3 receptors by the natural agonist hormone prostaglandin E2 (PGE2). Increasing concentrations of antagonist reduce the amount of calcium that a given concentration of PGE2 can mobilise. The net effect is to displace the PGE2 concentration-effect curve to higher concentrations of PGE2. The amount of calcium produced is assessed using a calcium-sensitive fluorescent dye such as Fluo-4, AM and a suitable instrument such as a Fluorimetric Imaging Plate Reader (FLIPR). Increasing amounts of [Ca^2+]i produced by receptor activation increase the amount of fluorescence produced by the dye and give rise to an increasing signal. The signal may be detected using the FLIPR instrument and the data generated may be analysed with suitable curve-fitting software.
# The human EP1 or EP3 calcium mobilisation assay (hereafter referred to as ‘the calcium assay’) utilises Chinese hamster ovary-K1 (CHO-K1) cells into which a stable (pCIN; BioTechniques 20 (1996): 102-110) vector containing either EP1 or EP3 cDNA has previously been transfected. Cells are cultured in suitable flasks containing culture medium such as DMEM:F-12 supplemented with 10% v/v foetal calf serum, 2 mM L-glutamine, 0.25 mg/ml geneticin, 100 μM flurbiprofen and 10 μg/ml puromycin.
# For assay, cells are harvested using a proprietary reagent that dislodges cells such as Versene. Cells are re-suspended in a suitable quantity of fresh culture media for introduction into a 384-well plate. Following incubation for 24 hours at 37° C. the culture media is replaced with a medium containing Fluo-4 and the detergent pluronic acid, and a further incubation takes place. Concentrations of compounds are then added to the plate in order to construct concentration-effect curves. This may be performed on the FLIPR in order to assess the agonist properties of the compounds. Concentrations of PGE2 are then added to the plate in order to assess the antagonist properties of the compounds.
# The data so generated may be analysed by means of a computerised curve-fitting routine. The concentration of compound that elicits a half-maximal inhibition of the calcium mobilisation induced by PGE2 (plC50) may then be estimated.
row,SMILES,Ki [µM]
1,"Cc1cc(OC(=O)NC2CCCCC2)nn1Cc1cc(Cl)ccc1OCc1ccccc1 [Example 43, 1-({5-Chloro-2-[(phenylmethyl)oxy]phenyl}methyl)-5-methyl-1H-pyrazol-3-yl cyclohexylcarbamate]",> 1
2,"Cc1cc(OC(=O)NC2CCCCC2)nn1Cc1cc(Cl)ccc1OCC(C)C [Example 51, 1-({5-Chloro-2-[(2-methylpropyl)oxy]phenyl}methyl)-5-methyl-1H-pyrazol-3-yl cyclohexylcarbamate]",> 1
3,"Cc1cc(OC(=O)NCc2ccc(NC(=O)OC(C)(C)C)cc2)nn1Cc1cc(Cl)ccc1OCc1ccccc1 [Example 56, 1-({5-Chloro-2-[(phenylmethyl)oxy]phenyl}methyl)-5-methyl-1H-pyrazol-3-yl {[4-({[(1,1-dimethylethyl)oxy]carbonyl}amino)phenyl]methyl}carbamate]",> 1
4,"Cc1cc(OC(=O)NCc2ccc(CNC(=O)OC(C)(C)C)cc2)nn1Cc1cc(Cl)ccc1OCc1ccccc1 [Example 59, 1-({5-Chloro-2-[(phenylmethyl)oxy]phenyl}methyl)-5-methyl-1H-pyrazol-3-yl 1,1-dimethylethyl (benzene-1,4-dildimethanediyl)biscarbamate]",> 1
5,"Cc1cc(OC(=O)NCc2cccc(NC(=O)OC(C)(C)C)c2)nn1Cc1cc(Cl)ccc1OCc1ccccc1 [Example 60, 1-({5-Chloro-2-[(phenylmethyl)oxy]phenyl}methyl)-5-methyl-1H-pyrazol-3-yl {[3-({[(1,1-dimethylethyl)oxy]carbonyl}amino)phenyl]methyl}carbamate]",> 1
6,"Cc1cc(OC(=O)NCc2cccc(CNC(=O)OC(C)(C)C)c2)nn1Cc1cc(Cl)ccc1OCc1ccccc1 [Example 61, 1-({5-Chloro-2-[(phenylmethyl)oxy]phenyl}methyl)-5-methyl-1H-pyrazol-3-yl 1,1-dimethylethyl (benzene-1,3-diyldimethanediyl)biscarbamate]",> 1
7,"COC(=O)Nc1cc(C)n(Cc2cc(Cl)ccc2OCc2ccccc2)n1 [Example 65, Methyl[1-({5-chloro-2-[(phenylmethyl)oxy]phenyl}methyl)-5-methyl-1H-pyrazol-3-yl]carbamate]",> 1
8,"CCOC(=O)Nc1cc(C)n(Cc2cc(Cl)ccc2OCc2ccccc2)n1 [Example 66, Ethyl [1-({5-chloro-2-[(phenylmethyl)oxy]phenyl}methyl)-5-methyl-1H-pyrazol-3-yl]carbamate]",> 1
9,"Cc1cc(NC(=O)c2ccc3c(c2)CCN(C(=O)OC(C)(C)C)CC3)nn1Cc1cc(Cl)ccc1OCC(C)C [Example 97, 1,1-Dimethylethyl 7-({[1-({5-chloro-2-[(2-methylpropyl)oxy]phenyl}methyl)-5-methyl-1H-pyrazol-3-yl]amino}carbonyl)-1,2,4,5-tetrahydro-3H-3-benzazepine-3-carboxylate]",> 1
10,"Cc1cc(NC(=O)c2ccc3c(c2)CCNCC3)nn1Cc1cc(Cl)ccc1OCC(C)C [Example 98, N-[1-({5-Chloro-2-[(2-methylpropyl)oxy]phenyl}methyl)-5-methyl-1H-pyrazol-3-yl]-2,3,4,5-tetrahydro-1H-3-benzazepine-7-carboxamide hydrochloride]",> 1
11,"CC(=O)Nc1cc(C)n(Cc2cc(Cl)ccc2OCC(C)C)n1 [Example 103, N-[1-({5-Chloro-2-[(2-methylpropyl)oxy]phenyl}methyl)-5-methyl-1H-pyrazol-3-yl]acetamide]",> 1

# Further lines, results first:
row,Ki [µM],SMILES
1,> 1,"CC(=O)Nc1cc(C)n(Cc2cc(Cl)ccc2OCc2ccccc2)n1 [Example 104, N-[1-({5-Chloro-2-[(phenylmethyl)oxy]phenyl}methyl)-5-methyl-1H-pyrazol-3-yl]acetamide]"
2,> 1,"Cc1cc(NC(=O)Cc2ccccc2)nn1Cc1cc(Cl)ccc1OCc1ccccc1F [Example 120, N-{1-[(5-Chloro-2-{[(2-fluorophenyl)methyl]oxy}phenyl)methyl]-5-methyl-1H-pyrazol-3-yl}-2-phenylacetamide]"
3,> 1,"Cc1cc(NC(=O)Cc2ccccc2)nn1Cc1cc(Cl)ccc1OCc1ccc(F)cc1 [Example 121, N-{1-[(5-Chloro-2-{[(4-fluorophenyl)methyl]oxy}phenyl)methyl]-5-methyl-1H-pyrazol-3-yl}-2-phenylacetamide]"
4,> 1,"Cc1cc(NC(=O)Cc2ccccc2)nn1Cc1cc(Cl)ccc1OCc1ccc(F)cc1F [Example 122, N-{1-[(5-Chloro-2-{[(2,4-difluorophenyl)methyl]oxy}phenyl)methyl]-5-methyl-1H-pyrazol-3-yl}-2-phenylacetamide]"
5,> 1,"Cc1cc(NC(=O)Cc2ccccc2)nn1Cc1cc(Cl)ccc1OCc1ccc(F)c(F)c1F [Example 123, N-{1-[(5-Chloro-2-{[(2,3,4-trifluorophenyl)methyl]oxy}phenyl)methyl]-5-methyl-1H-pyrazol-3-yl}-2-phenylacetamide]"
6,> 1,"Cc1cc(NC(=O)Cc2ccccc2)nn1Cc1cc(Cl)ccc1OCc1ccc(F)cc1Cl [Example 124, N-{1-[(5-Chloro-2-{[(2-chloro-4-fluorophenyl)methyl]oxy}phenyl)methyl]-5-methyl-1H-pyrazol-3-yl}-2-phenylacetamide]"
7,> 1,"Cc1cc(NC(=O)Cc2ccccc2)nn1Cc1cc(Cl)ccc1OCc1ccc(Cl)cc1Cl [Example 125, N-{1-[(5-Chloro-2-{[(2,4-dichlorophenyl)methyl]oxy}phenyl)methyl]-5-methyl-1H-pyrazol-3-yl}-2-phenylacetamide]"
8,> 1,"Cc1cc(NC(=O)Cc2ccccc2)nn1Cc1cc(Cl)ccc1OCc1c(F)cc(F)cc1F [Example 127, N-{1-[(5-Chloro-2-{[(2,4,6-trifluorophenyl)methyl]oxy}phenyl)methyl]-5-methyl-1H-pyrazol-3-yl}-2-phenylacetamide]"
9,> 1,"Cc1cc(NC(=O)Cc2ccccc2)nn1Cc1cc(Cl)ccc1OCc1ccc(F)c(F)c1 [Example 128, N-{1-[(5-Chloro-2-{[(3,4-difluorophenyl)methyl]oxy}phenyl)methyl]-5-methyl-1H-pyrazol-3-yl}-2-phenylacetamide]"
10,> 1,"Cc1cc(NC(=O)Cc2ccccc2)nn1Cc1cc(Cl)ccc1OCc1ccccc1Cl [Example 129, N-{1-[(5-Chloro-2-{[(2-chlorophenyl)methyl]oxy}phenyl)methyl]-5-methyl-1H-pyrazol-3-yl}-2-phenylacetamide]"
11,> 1,"Cc1cc(NC(=O)c2ccccn2)nn1Cc1cc(Cl)ccc1OCc1ccccc1 [Example 139, N-[1-({5-Chloro-2-[(phenylmethyl)oxy]phenyl}methyl)-5-methyl-1H-pyrazol-3-yl]-2-pyridinecarboxamide]"
12,> 1,"Cc1cc(NC(=O)c2ccco2)nn1Cc1cc(Cl)ccc1OCc1ccccc1 [Example 140, N-[1-({5-Chloro-2-[(phenylmethyl)oxy]phenyl}methyl)-5-methyl-1H-pyrazol-3-yl]-2-furancarboxamide]"
13,> 1,"Cc1cc(NC(=O)c2ccc(C#N)cc2)nn1Cc1cc(Cl)ccc1OCc1ccccc1 [Example 142, N-[1-({5-Chloro-2-[(phenylmethyl)oxy]phenyl}methyl)-5-methyl-1H-pyrazol-3-yl]-4-cyanobenzamide]"
14,> 1,"Cc1cc(NC(=O)c2cnccn2)nn1Cc1cc(Cl)ccc1OCc1ccccc1 [Example 144, N-[1-({5-Chloro-2-[(phenylmethyl)oxy]phenyl}methyl)-5-methyl-1H-pyrazol-3-yl]-2-pyrazinecarboxamide]"
